Reference: ChEMBL document CHEMBL4325896, “The potential role of tubeimosides in cancer prevention and treatment” (Eur J Med Chem, 2019)
Converted amounts (≈) assume the structure as drawn.

Columns and labels:
[1] = Toxicity in ip dosed ICR mouse; format: organism-based; details: in vivo
HepG2 [2] = assay: Antiproliferative activity against human HepG2 cells; format: functional, cell-based
SK-OV-3 = assay: Antiproliferative activity against human SKOV3 cells after 24 hrs by MTT assay; format: functional, cell-based; details: SK-OV-3, 24 h
[3] = Elimination half life in Sprague-Dawley rat at 5 mg/kg, iv by LC-MS analysis; format: ADME, organism-based; details: in vivo
[4] = Oral bioavailability in Sprague-Dawley rat at 50 mg/kg by LC-MS analysis; format: ADME, organism-based; details: in vivo
[5] = Oral bioavailability in ICR mouse at 20 mg/kg by UPLC-MS/MS analysis; format: ADME, organism-based; details: in vivo
[6] = Antiproliferative activity against mouse eEND.2 cells after 24 hrs by WST-1 assay; format: cell-based
PC-3 = assay: Antiproliferative activity against human PC3 cells after 24 hrs by MTT assay; format: functional, cell-based; details: PC-3, 24 h
T-24 = assay: Antiproliferative activity against human T24 cells after 24 hrs by MTT assay; format: functional, cell-based; details: T-24, 24 h
[7] = Antiproliferative activity against human PGCL3 cells after 48 hrs by MTT assay; format: functional, cell-based
HUVEC [8] = assay: Antimigratory activity against HUVEC at 20 umol/L after 24 hrs relative to control; format: functional, Homo sapiens
NCI-H460 [9] = assay: Antiproliferative activity against human NCI-H460 cells after 24 hrs by WST-1 assay; format: functional, cell-based; details: NCI-H460, 24 h
HUVEC [10] = assay: Antiproliferative activity against HUVEC after 72 hrs; format: functional, cell-based; details: Homo sapiens
HeLa [11] = assay: Antiproliferative activity against human HeLa cells after 72 hrs by MTT assay; format: functional, cell-based
HUVEC [12] = assay: Antiproliferative activity against HUVEC after 48 hrs; format: functional, cell-based; details: Homo sapiens
[13] = Tmax in Sprague-Dawley rat at 50 mg/kg, po by LC-MS analysis; format: ADME, organism-based; details: in vivo
PC-9 = assay: Antiproliferative activity against human PC9 cells after 72 hrs by MTS assay; format: functional, cell-based; details: PC-9, 72 h
HepG2 [14] = assay: Antiproliferative activity against human HepG2 cells after 24 hrs by MTT assay; format: functional, cell-based; details: HepG2, 24 h
[15] = Tmax in Sprague-Dawley rat at 50 mg/kg, po by HPLC-DAD-IT-TOF-MS analysis; format: ADME, organism-based; details: in vivo
NCI-H1299 = assay: Antiproliferative activity against human NCI-H1299 cells after 48 hrs by CCK-8 assay; format: functional, cell-based; details: NCI-H1299, 48 h
JEG-3 = assay: Antiproliferative activity against human JEG3 cells after 24 hrs by MTT assay; format: functional, cell-based; details: JEG-3, 24 h
[16] = Antiproliferative activity against human A2780DDP cells after 12 hrs; format: functional, cell-based
A549 = assay: Antiproliferative activity against human A549 cells after 72 hrs by MTS assay; format: functional, cell-based; details: A549, 72 h
HUVEC [17] = assay: Antiproliferative activity against HUVEC after 24 hrs; format: functional, cell-based; details: Homo sapiens
DU-145 = assay: Antiproliferative activity against human DU145 cells after 24 hrs by MTT assay; format: functional, cell-based; details: DU-145, 24 h
HeLa [18] = assay: Antiproliferative activity against human HeLa cells after 48 hrs by MTT assay; format: functional, cell-based
[19] = Volume of distribution at terminal phase in Sprague-Dawley rat at 5 mg/kg, iv by LC-MS analysis; format: ADME, organism-based; details: in vivo
NCI-H460 [20] = assay: Antiproliferative activity against human NCI-H460 cells after 9 hrs by MTT assay; format: functional, cell-based; details: NCI-H460, 9 h
HeLa [21] = assay: Cytotoxicity against human HeLa cells after 24 hrs by MTT assay; format: functional, cell-based
[22] = Cmax in Sprague-Dawley rat at 50 mg/kg, po by LC-MS analysis; format: ADME, organism-based; set-up: dose 50 mg/kg, route oral; details: in vivo
[23] = Antiproliferative activity against human A2780DDP cells after 24 hrs; format: functional, cell-based
[24] = Cmax in Sprague-Dawley rat at 50 mg/kg, po by HPLC-DAD-IT-TOF-MS analysis; format: ADME, organism-based; set-up: dose 50 mg/kg, route oral; details: in vivo
[25] = AUC (0 to infinity) in Sprague-Dawley rat at 50 mg/kg, po by HPLC-DAD-IT-TOF-MS analysis; format: ADME, organism-based; set-up: dose 50 mg/kg, time infinity, route oral; details: in vivo
[26] = MRT (0 to 24 hrs) in Sprague-Dawley rat at 50 mg/kg, po by HPLC-DAD-IT-TOF-MS analysis; format: ADME, organism-based; details: in vivo
[27] = Elimination half life in ICR mouse at 5 mg/kg, iv by UPLC-MS/MS analysis; format: ADME, organism-based; details: in vivo, read-out: beta t1/2 (converted)
[28] = MRT (0 to infinity) in Sprague-Dawley rat at 50 mg/kg, po by HPLC-DAD-IT-TOF-MS analysis; format: ADME, organism-based; details: in vivo
[29] = Antiproliferative activity against human PGCL3 cells after 72 hrs by MTT assay; format: functional, cell-based
[30] = Elimination half life in ICR mouse at 20 mg/kg, po by UPLC-MS/MS analysis; format: ADME, organism-based; details: in vivo, read-out: beta t1/2 (converted)
[31] = AUC (0 to 24 hrs) in Sprague-Dawley rat at 50 mg/kg, po by HPLC-DAD-IT-TOF-MS analysis; format: ADME, organism-based; set-up: dose 50 mg/kg, time < 24 hr, route oral; details: in vivo
[32] = Antiproliferative activity against human PGCL3 cells after 24 hrs by MTT assay; format: functional, cell-based
[33] = Antiproliferative activity against human A2780DDP cells after 48 hrs; format: functional, cell-based
ECa-109 cell line [34] = assay: Antiproliferative activity against human EC109 cells after 24 hrs by MTT assay; format: functional, cell-based; details: ECa-109, 24 h
[35] = Half life in Sprague-Dawley rat at 50 mg/kg, po by HPLC-DAD-IT-TOF-MS analysis; format: ADME, organism-based; details: in vivo
ECa-109 cell line [36] = assay: Antiproliferative activity against human EC109 cells after 48 hrs by MTT assay; format: functional, cell-based; details: ECa-109, 48 h
HeLa [37] = assay: Antiproliferative activity against human HeLa cells after 24 hrs by MTT assay; format: functional, cell-based

## C[C@@H]1O[C@H]2O[C@H]3[C@@H](OC[C@H](O)[C@@H]3O)OC(=O)[C@]34CCC(C)(C)C[C@H]3C3=CC[C@@H]5[C@@]6(C)C[C@H](O)[C@H](O[C@@H]7O[C@H](CO)[C@@H](O)[C@H](O)[C@H]7O[C@@H]7O[C@H](COC(=O)C[C@](C)(O)CC(=O)O[C@@H]1[C@@H](O[C@@H]1OC[C@@H](O)[C@H](O)[C@H]1O)[C@H]2O)[C@@H](O)[C@H](O)[C@H]7O)[C@@](C)(CO)[C@@H]6CC[C@@]5(C)[C@]3(C)C[C@H]4O
[1]
  LD50: 15 mg/kg

## C[C@@H]1O[C@H]2O[C@H]3[C@@H](OC[C@H](O)[C@@H]3O)OC(=O)[C@]34CCC(C)(C)C[C@H]3C3=CC[C@@H]5[C@@]6(C)C[C@H](O)[C@H](O[C@@H]7O[C@H](CO)[C@@H](O)[C@H](O)[C@H]7O[C@@H]7OC[C@H](OC(=O)C[C@](C)(O)CC(=O)O[C@@H]1[C@@H](O[C@@H]1OC[C@@H](O)[C@H](O)[C@H]1O)[C@H]2O)[C@H](O)[C@H]7O)[C@@](C)(CO)[C@@H]6CC[C@@]5(C)[C@]3(C)C[C@H]4O
HepG2 [2]
  IC50: 4.05 µg/mL (≈ 3.03 µM)
[1]
  LD50: 21 mg/kg

## C[C@@H]1O[C@H]2O[C@H]3[C@@H](OC[C@H](O)[C@@H]3O)OC(=O)[C@]34CCC(C)(C)C[C@H]3C3=CC[C@@H]5[C@@]6(C)C[C@H](O)[C@H](O[C@@H]7O[C@H](CO)[C@@H](O)[C@H](O)[C@H]7O[C@@H]7OC[C@H](OC(=O)C[C@](C)(O)CC(=O)O[C@@H]1[C@@H](O[C@@H]1OC[C@@H](O)[C@H](O)[C@H]1O)[C@H]2O)[C@H](O)[C@H]7O)[C@@](C)(CO)[C@@H]6CC[C@@]5(C)[C@]3(C)CC4
SK-OV-3
  IC50: 16 µM
[3]
  beta t1/2: 6.7 h
[4]
  bioavailability: 0.23%
[5]
  bioavailability: 1%
[6]
  IC50: 12 µM
PC-3
  IC50: 20 µM
T-24
  IC50: 20 µM
[7]
  IC50: 14.2 µM
HUVEC [8]
  Activity: 58.4%
NCI-H460 [9]
  IC50: 23.3 µM
HUVEC [10]
  IC50: 17.9 µM
HeLa [11]
  IC50: 17.1 µM
HUVEC [12]
  IC50: 21.4 µM
[13]
  Tmax: 2.75 h
PC-9
  IC50: 10.2 µM
HepG2 [14]
  IC50: 15.5 to 20 µM
[15]
  Tmax: 2.85 h
NCI-H1299
  IC50: 10 µM
JEG-3
  IC50: 8.5 µM
[16]
  IC50: 3 µM
A549
  IC50: 12.3 µM
HUVEC [17]
  IC50: 24.2 µM
DU-145
  IC50: 10 µM
HeLa [18]
  IC50: 27.1 µM
[19]
  Vbeta: 0.106 L/kg
NCI-H460 [20]
  IC50: 20 µM
HeLa [21]
  IC50: 25 µM
[22]
  Cmax: 675 ng/mL
[23]
  IC50: 6 µM
[24]
  Cmax: 1342 ng/mL
[25]
  AUC: 9900 ng·h/mL
[26]
  MRT last: 7.02 h
[27]
  half-life: 6.8 h
[28]
  MRT inf: 9.16 h
[29]
  IC50: 13.3 µM
[30]
  half-life: 2.3 h
[31]
  AUC(0-t) at 24 h: 8800 ng·h/mL
[32]
  IC50: 15.7 µM
[33]
  IC50: 12 µM
ECa-109 cell line [34]
  IC50: 45 µM
[35]
  t1/2: 4.6 h
ECa-109 cell line [36]
  IC50: 35 µM
[1]
  LD50: 18.7 mg/kg
HeLa [37]
  IC50: 34.8 µM
